In US20230183179A1, “NOVEL CELL METABOLISM MODULATING COMPOUNDS AND USES THEREOF” (CRESCENTA BIOSCIENCES, priority 2020, published 2023):

How the values were obtained:
[1] = system: differentiated 3T3-L1 mouse adipocyte cells; assay: Adipocyte glucose consumption in differentiated 3T3-L1 cells (colorimetric glucose assay of the medium); type: cell-based; conditions: 3T3-L1, 24 h, compound 10 μM, loss of glucose from culture medium, mean fold change (compound/DMSO)
Method in brief: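 Differentiated 3T3-L1 mouse adipocytes (rosiglitazone/dexamethasone/IBMX/insulin induction, day 11) treated 24 h with compounds at 10 μM, 0.1% DMSO final. Medium glucose measured colorimetrically; consumption taken as glucose loss from medium versus cell-free control, expressed as mean fold change compound/DMSO ±SD.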

[2] = target: T1, His6 tagged human recombinant FABP4 (Homo sapiens, UniProt P15090); assay: FABP4 TR-FRET assay: displacement of fluorescent fatty acid BODIPY FL C12; conditions: inhibition of BODIPY FL C12 binding to His6-FABP4; 1.2 μL of 1.085 mM compound in DMSO per well; triplicates, mean percent inhibition
T1 construct: purchased Cayman Chemicals 10009549
T1 sequence (P15090 whole entry): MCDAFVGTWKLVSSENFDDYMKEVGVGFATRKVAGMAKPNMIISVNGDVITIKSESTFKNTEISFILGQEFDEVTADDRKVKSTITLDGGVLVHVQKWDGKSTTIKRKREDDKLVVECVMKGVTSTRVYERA
Method in brief: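 TR-FRET displacement of BODIPY FL C12 from His6-FABP4 bound by Tb-anti-His6 antibody, in Tris pH 7.4 buffer with γ-globulins, NP-40 and DTT; compound stock 1.085 mM in DMSO. Read after 10 min at room temperature as 520/615 nm ratio; mean % inhibition versus DMSO from triplicates.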

| Compound | fold induction at 10 µM [1] | inhibition at 1085 µM (stock) [2] [%] |
| --- | --- | --- |
| CCCCc1ccc2nc(N3CCCC3C(=O)O)cc(-c3ccccc3)c2c1 (stereo not drawn) [1-(6-butyl-4-phenylquinolin-2-yl)pyrrolidine-2-carboxylic acid] | 1.12 | 92.5 |
| CN(CC(=O)O)c1cc(-c2ccccc2)c2cc(CCc3cccnc3)ccc2n1 [2-[methyl({4-phenyl-6-[2-(pyridin-3-yl)ethyl]quinolin-2-yl})amino]acetic acid] | 1.41 | 32 |
| CN(CC(=O)O)c1cc(-c2cccc(C#N)c2)c2cc(Br)ccc2n1 [2-{[6-bromo-4-(3-cyanophenyl)quinolin-2-yl](methyl)amino}acetic acid] | 1.16 | 91.1 |
| CCCCCCc1ccc2nc(N(C)CC(=O)O)cc(Oc3cccc(F)c3)c2c1 [2-{[4-(3-fluorophenoxy)-6-hexylquinolin-2-yl](methyl)amino}acetic acid] | 1.21 | 98.8 |
| CCCCCCc1ccc2nc(N3CCCC(C(=O)O)C3)cc(-c3cccnc3)c2c1 (stereo not drawn) [1-[6-hexyl-4-(pyridin-3-yl)quinolin-2-yl]piperidine-3-carboxylic acid] | 1.09 | 91.6 |
| CN(CC(=O)O)c1cc(-c2ccccc2)c2cc(CCc3ccnc4[nH]ccc34)ccc2n1 [2-{methyl[4-phenyl-6-(2-{1H-pyrrolo[2,3-b]pyridin-4-yl}ethyl)quinolin-2-yl]amino}acetic acid] | 1.26 | 29.8 |
| CCCCc1ccc2nc(N(C)CC(=O)O)cc(-c3ccc(C)cc3)c2c1 [2-{[6-butyl-4-(4-methylphenyl)quinolin-2-yl](methyl)amino}acetic acid] | 1.36 | 30.8 |
| CCCCCCCc1ccc2nc(N(C)CC(=O)O)cc(-c3ccc(F)cc3)c2c1 [2-([4-(4-fluorophenyl)-6-heptylquinolin-2-yl](methyl)amino}acetic acid] | 1.25 | 75.6 |
| CCCc1ccc2nc(N(C)CC(=O)O)cc(-c3cccc(C(N)=O)c3)c2c1 [2-{[4-(3-carbamoylphenyl)-6-propylquinolin-2-yl](methyl)amino}acetic acid] | 1.07 | 48 |
| CCc1ccc2nc(N(C)CC(=O)O)cc(-c3cccc(C(N)=O)c3)c2c1 [2-{[4-(3-carbamoylphenyl)-6-ethylquinolin-2-yl](methyl)amino}acetic acid] | 1.07 | 78 |
| CCCCCCc1ccc2nc(N(C)CC(=O)O)cc(-c3ccc(F)cc3)c2c1 [2-{[4-(4-fluorophenyl)-6-hexylquinolin-2-yl](methyl)amino}acetic acid] | 1.3 | 81 |
| CCCCCCc1ccc2nc(N(C)C(C)CC(=O)O)cc(-c3cccc(C#N)c3)c2c1 (stereo not drawn) [3-{[4-(3-cyanophenyl)-6-hexylquinolin-2-yl](methyl)amino}butanoic acid] | 1.03 | 77.9 |
| CN(CC(=O)O)c1cc(-c2ccccc2)c2cc(CCc3ccc4ncccc4c3)ccc2n1 [2-[methyl({4-phenyl-6-[2-(quinolin-6-yl)ethyl]quinolin-2-yl})amino]acetic acid] | 1.4 | 34.7 |
| CN(CC(=O)NCC(=O)O)c1cc(-c2ccccc2)c2cc(Cl)ccc2n1 [2-{2-[(6-chloro-4-phenylquinolin-2-yl)(methyl)amino]acetamido}acetic acid] | 1.08 | 103 |
| Cc1ccccc1CCc1ccc2nc(N(C)CC(=O)O)cc(-c3ccccc3)c2c1 [2-[methyl({6-[2-(2-methylphenyl)ethyl]-4-phenylquinolin-2-yl})amino]acetic acid] | 1.4 | 38.2 |
